Tested on: HLA-A*01
Assay: MHC binding assay (UV-ligand exchange, β2m ELISA)
Parameters: species or system human
Source text: Candidate peptides for T cell based therapies according to the present invention were further tested for their MHC binding capacity (affinity). The individual peptide-MHC complexes were produced by UV-ligand exchange, where a UV-sensitive peptide is cleaved upon UV-irradiation, and exchanged with the peptide of interest as analyzed. Only peptide candidates that can effectively bind and stabilize the peptide-receptive MHC molecules prevent dissociation of the MHC complexes. To determine the yield of the exchange reaction, an ELISA was performed based on the detection of the light chain (β2m) of stabilized MHC complexes. The assay was performed as generally described in Rodenko et al. (Rodenko et al., 2006).
96 well MAXISorp plates (NUNC) were coated over night with 2 ug/ml streptavidin in PBS at room temperature, washed 4× and blocked for 1 h at 37° C. in 2% BSA containing blocking buffer. […] Peptide-MHC monomers of the UV-exchange reaction were diluted 100-fold in blocking buffer. Samples were incubated for 1 h at 37° C., washed four times, incubated with 2 ug/ml HRP conjugated anti-β2m for 1h at 37° C., washed again and detected with TMB solution that is stopped with […]. Absorption was measured at 450 nm. Candidate peptides that show a high exchange yield (preferably higher than 50%, most preferred higher than 75%) are generally preferred for a generation and production of antibodies or fragments thereof, and/or T cell receptors or fragments thereof, as they show sufficient avidity to the MHC molecules and prevent dissociation of the MHC complexes.

Row | Substance | Peptide exchange (peptide exchange yield, MHC class I binding score)
1 | 142 (EVAEPSVLFDLY; listed as Homo sapiens) [compound 142] | “+++” (>50 = +++)
2 | 145 (FVDKPVAY; listed as Homo sapiens) [compound 145] | “+++” (>50 = +++)
3 | 163 (NSDSSLTLREFY; listed as Homo sapiens) [compound 163] | “+++” (>50 = +++)
4 | 171 (RSDPVTLNVLY; listed as Homo sapiens) [compound 171] | “++++” (>75% = ++++)
5 | 147 (GSSDSSTLPKL; listed as Homo sapiens) [compound 147] | “++” (>20% = ++)
6 | 161 (LVDDGTHGQY; listed as Homo sapiens) [compound 161] | “+++” (>50 = +++)
7 | 162 (LVDNSIRELQY; listed as Homo sapiens) [compound 162] | “+++” (>50 = +++)
8 | 168 (QTDHPQPILDRY; listed as Homo sapiens) [compound 168] | “++++” (>75% = ++++)
9 | 181 (TADGKTYYY; listed as Homo sapiens) [compound 181] | “+++” (>50 = +++)
10 | 154 (LLDISQKNLY; listed as Homo sapiens) [compound 154] | “+++” (>50 = +++)
11 | 155 (LLDPNPHMY; listed as Homo sapiens) [compound 155] | “++++” (>75% = ++++)
12 | 167 (QSDPGTSVLGY; listed as Homo sapiens) [compound 167] | “+++” (>50 = +++)
13 | 184 (TSAHPEDSSFY; listed as Homo sapiens) [compound 184] | “+++” (>50 = +++)
14 | 141 (ESDVGVVVY; listed as Homo sapiens) [compound 141] | “+++” (>50 = +++)
15 | 146 (GLNTGSALSY; listed as Homo sapiens) [compound 146] | “++” (>20% = ++)
16 | 179 (STAKSATWTY; listed as Homo sapiens) [compound 179] | “++++” (>75% = ++++)
17 | 135 (ASEDSVLLY; listed as Homo sapiens) [compound 135] | “++++” (>75% = ++++)
18 | 166 (NTQITDIGRY; listed as Homo sapiens) [compound 166] | “+++” (>50 = +++)
19 | 178 (SSDSSTLPKL; listed as Homo sapiens) [compound 178] | “++” (>20% = ++)
20 | 177 (SSDEVNFLVY; listed as Homo sapiens) [compound 177] | “++++” (>75% = ++++)
21 | 149 (GTEFTTVLY; listed as Homo sapiens) [compound 149] | “++++” (>75% = ++++)
22 | 150 (GTELLSLVY; listed as Homo sapiens) [compound 150] | “++++” (>75% = ++++)
23 | 151 (HSDLKVGEY; listed as Homo sapiens) [compound 151] | “+++” (>50 = +++)
24 | 139 (ECDMAFHIY; listed as Homo sapiens) [compound 139] | “++++” (>75% = ++++)
25 | 144 (FLDSQNLSAY; listed as Homo sapiens) [compound 144] | “+++” (>50 = +++)
26 | 134 (AAEIGDKSWLY; listed as Homo sapiens) [compound 134] | “++++” (>75% = ++++)

Results, then the substance that gave them:

Row | Peptide exchange (peptide exchange yield, MHC class I binding score) | Substance
27 | “++++” (>75% = ++++) | 431 (NTSDMMGRMSY; listed as Homo sapiens) [compound 431]
28 | “+++” (>50 = +++) | 439 (TLDAGKFQIY; listed as Homo sapiens) [compound 439]
29 | “++++” (>75% = ++++) | 419 (LSELKPMSY; listed as Homo sapiens) [compound 419]
30 | “++++” (>75% = ++++) | 425 (NLDIIQQEY; listed as Homo sapiens) [compound 425]
31 | “++++” (>75% = ++++) | 421 (LTELLERAAFY; listed as Homo sapiens) [compound 421]
32 | “++” (>20% = ++) | 199 (YLPQHTIETY; listed as Homo sapiens) [compound 199]
33 | “+++” (>50 = +++) | 445 (VLDQGKITEY; listed as Homo sapiens) [compound 445]
34 | “++++” (>75% = ++++) | 394 (ASEAEMRLFY; listed as Homo sapiens) [compound 394]
35 | “++++” (>75% = ++++) | 441 (TLDSALNAASYY; listed as Homo sapiens) [compound 441]
36 | “++++” (>75% = ++++) | 427 (NSDEQKITEMVY; listed as Homo sapiens) [compound 427]
37 | “+++” (>50 = +++) | 447 (VVDEDHELIY; listed as Homo sapiens) [compound 447]
38 | “++++” (>75% = ++++) | 198 (YLDPVQRDLY; listed as Homo sapiens) [compound 198]
39 | “+++” (>50 = +++) | 188 (VSDAKLDKY; listed as Homo sapiens) [compound 188]
40 | “++++” (>75% = ++++) | 423 (NLDAVHDITVAY; listed as Homo sapiens) [compound 423]
41 | “+++” (>50 = +++) | 186 (TTDIIEKY; listed as Homo sapiens) [compound 186]
42 | “+++” (>50 = +++) | 424 (NLDEEKQLLY; listed as Homo sapiens) [compound 424]
43 | “++++” (>75% = ++++) | 191 (VTDGSLYEGVAY; listed as Homo sapiens) [compound 191]
44 | “+++” (>50 = +++) | 438 (STDNFNCKY; listed as Homo sapiens) [compound 438]

Row | Peptide exchange (peptide exchange yield, MHC class I binding score) | Substance
45 | “+++” (>50 = +++) | 432 (NVDPVQHTY; listed as Homo sapiens) [compound 432]
46 | “++++” (>75% = ++++) | 412 (ILDEVIMGY; listed as Homo sapiens) [compound 412]
47 | “++++” (>75% = ++++) | 399 (ATDIPCLLY; listed as Homo sapiens) [compound 399]
48 | “++++” (>75% = ++++) | 429 (NTEDSSMSGYLY; listed as Homo sapiens) [compound 429]
49 | “++++” (>75% = ++++) | 420 (LTEDKETLQY; listed as Homo sapiens) [compound 420]
50 | “++++” (>75% = ++++) | 409 (FVDPLVTNY; listed as Homo sapiens) [compound 409]
51 | “+++” (>50 = +++) | 426 (NLDQATRVAY; listed as Homo sapiens) [compound 426]
52 | “++++” (>75% = ++++) | 404 (ETARKFLYY; listed as Homo sapiens) [compound 404]
53 | “++++” (>75% = ++++) | 396 (ASEFGNHYLY; listed as Homo sapiens) [compound 396]
54 | “+++” (>50 = +++) | 418 (LSDPSGPKSY; listed as Homo sapiens) [compound 418]
55 | “++++” (>75% = ++++) | 450 (YSDDGQKWTVY; listed as Homo sapiens) [compound 450]
56 | “+” (>10% = +) | 196 (WMFFVINY; listed as Homo sapiens) [compound 196]
57 | “+++” (>50 = +++) | 403 (ELDSKVEVLTY; listed as Homo sapiens) [compound 403]
58 | “+++” (>50 = +++) | 402 (DTDSQRLAY; listed as Homo sapiens) [compound 402]
59 | “++++” (>75% = ++++) | 192 (VTEESFDSKFY; listed as Homo sapiens) [compound 192]
60 | “++++” (>75% = ++++) | 433 (QIDTGENLY; listed as Homo sapiens) [compound 433]
61 | “+++” (>50 = +++) | 408 (FTEQWTDGY; listed as Homo sapiens) [compound 408]
62 | “++++” (>75% = ++++) | 413 (ISDRYYTALY; listed as Homo sapiens) [compound 413]
